In patent US11116847B2, “Methylene carbamate linkers for use with targeted-drug conjugates” (Seagen Inc., priority 2013, dated 2021):
Marks after values point to notes of the source that are not given here.

Columns and labels:
[1] = tested on: Type B-1 β-glucuronidase (bovine liver); assay: Release of free drug or model drug from NAC-conjugates after glucuronidase activation of the Self-immolative Assembly Unit; type: biochemical; conditions: NAC-conjugate corresponding to the named model drug-linker compound (N-acetyl cap replaced by maleimide Stretcher quenched with N-acetyl-cysteine)
Procedure: Release of free drug from the NAC-7.7 conjugate derived from the Drug-Linker Compound of Example 7 was evaluated in the following manner: An enzyme stock was prepared by dissolving Type B-1 β-glucuronidase (bovine liver, 1,644,000 units/g solid) in pH 5 100 mM sodium acetate buffer to a working concentration of 0.5 mg/mL. Five microliters of 8 mM drug-linker stock of compound 7.7 was added to 12.5 μL DMSO, 26.3 μL of phosphate-buffered saline, and 6.75 μL of 100 mM N-acetylcysteine. The quenched linker was then diluted with 0.45 mL enzyme stock. The enzymatic reaction was then incubated at 37 C, with multiple time points taken at 1, 10, 20, and 40 minutes. Each time point sample consisted of 20 μL reaction diluted in 5 volumes ice cold methanol and cooled to −20 C until all the samples were withdrawn. The samples were then centrifuged at 12,000 g for 5 minutes and 20 μL of supernatant was analyzed by UPLC-MS. After 20 minutes of enzyme digestion the drug-linker was completely consumed. By 40 minutes, the majority of the material was free drug, indicating effectively complete drug release from the linker system.
Releases of stand-in “free drugs” from NAC conjugates incorporating the Drug-Linker moieties from Example 8 were also studied. Those compounds were prepared by replacing the N-acetyl capping group with N-3-(propionoyl)-maleimide, which introduces a maleimide Stretcher Unit precursor, in the amino intermediates used for the preparation of model drug linker compounds 8.23-8.30. The maleimide moieties are then quenched with N-acetyl-cysteine as previously described for the preparation of NAC-7.7. The NAC-conjugates derived from the amino intermediates of Example 8 have the generalized structure of
[drawing 194] wherein T* is the oxygen or sulfur heteroatom from the hydroxyl or sulfhydryl functional group of the primary alcohol or thiol-containing compound or the oxygen heteroatom from the hydroxyl functional group of the secondary or tertiary alcohol-containing compound or from the phenolic-containing compound of Table 3.

[2] = In vitro stability of drug-linker / model drug-linker compounds to spontaneous hydrolysis of the methylene carbamate unit (LC/MS); type: physicochemical; conditions: for Relative Degradation Half-life Observed by LC/MS: 0.1M PBS; for Relative Degradation Half-life Observed by LC/MS / drug-linker degradation: pH 7.4, at 37° C.; for degradation / stability to spontaneous hydrolysis / stability to spontaneous hydrolysis when R is dimethylaminoethyl instead of ethyl: 0.1 M phosphate buffered saline; for degradation / stability to spontaneous hydrolysis / comparative hydrolytic stability / stability to spontaneous hydrolysis when R is dimethylaminoethyl instead of ethyl: pH 7.4, 37° C.; for degradation / stability to spontaneous hydrolysis: tested every 24 h for 7 days by LC/MS; for comparative hydrolytic stability: PBS, 8.26 compared with 6.4, 5.6 compared with model compound (8.23); for stability to spontaneous hydrolysis when R is dimethylaminoethyl instead of ethyl: 7 days, compared with 8.26; for drug-linker degradation: after 14 da incubation in 0.1 M PBS
Procedure: General procedure for testing Drug-Linker stability: Final N-acetyl products of Example 8 were dissolved in 1 mL 0.1 M phosphate buffered saline, pH 7.4, in a vial at 37° C. LC/MS samples were prepared by adding 2 μL aliquots of incubated compound solution to 100 μL of MeOH in an HPLC vial. Each conjugate was tested every 24 h for 7 days.
For evaluation of in vitro stability of Compound 7.7 this Drug-Linker compound was converted to its N-acetylcysteine conjugate (NAC-7.7), which provide a model LDC with NAC serving as a surrogate for a targeting antibody Ligand Unit. For that purpose eight microliters of a 8 mM DMSO stock of Drug-Linker Compound was diluted in phosphate-buffered saline (0.39 mL). The maleimide moiety in each Drug-Linker Compound was then quenched with N-acetylcysteine (0.8 μL, 100 mM stock), and the material was stored in a 37° C. incubator. Aliquots were drawn at various time points out to 14 days and analyzed by UPLC-MS for drug-linker integrity.
Stability testing was conducted as in Example 9.

Caki-1 = assay: In vitro cytotoxic activity of ADCs; type: cell-based; conditions: Table 6; Caki-1 CD70+
Procedure: (§1) The targeting antibody ligands cAC10 and h1F6 are described in U.S. Pat. […] cAC10-1006 and hF16-1006, referenced in the following tables, is the chimeric AC10 antibody and the humanized F16 antibody, respectively, conjugated to monomethyl auristatin E (MMAE) at its N terminus via a carbamate functional group to a val-cit-PABA self-immolative moiety having formula XVIII and was used as a control. The resultant ADCs were tested against multiple cell lines to determine in vitro activity, the results from which are summarized in Tables 5 and 6.

Karpas 299 = assay: In vitro cytotoxic activity of ADCs; type: cell-based; conditions: Table 6; Karpas 299 CD30+ CD70−
Procedure: as §1

786-0 = assay: In vitro cytotoxic activity of ADCs; type: cell-based; conditions: Table 6; 786-0 CD70+
Procedure: as §1

L540cy = assay: In vitro cytotoxic activity of ADCs; type: cell-based; conditions: Table 6; L540cy CD30+ CD70 (low)
Procedure: as §1

CCN(COc1cccc2ccccc12)C(=O)OCc1ccc(O[C@@H]2O[C@H](C(=O)O)[C@@H](O)[C@H](O)[C@H]2O)c(NC(C)=O)c1 [Compound 8.28, (2S,3S,4S,5R,6S)-6-(2-acetamido-4-(((ethyl((naphthalen-1-yloxy)methyl)carbamoyl)oxy)methyl)phenoxy)-3,4,5-trihydroxytetrahydro-2H-pyran-2-carboxylic acid]
Time to 100% Release [1]: 25 min | Relative Degradation Half-life Observed by LC/MS [2]: None Observed | degradation / stability to spontaneous hydrolysis [2]: excellent stability

CCN(COC(C)Cc1ccccc1)C(=O)OCc1ccc(O[C@@H]2O[C@H](C(=O)O)[C@@H](O)[C@H](O)[C@H]2O)c(NC(C)=O)c1 (stereo partly drawn) [Compound 8.26, (2S,3S,4S,5R,6S)-6-(2-acetamido-4-(((ethyl(((-phenylpropan-2-yl)oxy)methyl)carbamoyl)oxy)methyl)phenoxy)-3,4,5-trihydroxytetrahydro-2H-pyran-2-carboxylic acid]
Time to 100% Release [1]: 45 min | Relative Degradation Half-life Observed by LC/MS [2]: None Observed | degradation / stability to spontaneous hydrolysis [2]: no signs of degradation | comparative hydrolytic stability [2]: increase stability

COCCOCCOCCOCCOCCOCCOCCOCCN(COC(C)Cc1ccccc1)C(=O)OCc1ccc(O[C@@H]2O[C@H](C(=O)O)[C@@H](O)[C@H](O)[C@H]2O)c(NC(C)=O)c1 (stereo partly drawn) [Compound 8.32, (2S,3S,4S,5R,6S)-6-(2-acetamido-4-(3-oxo-4-(((1-phenylpropan-2-yl)oxy)methyl)-2,7,10,13,16,19,22,25,28-nonaoxa-4-azanonacosyl)phenoxy)-3,4,5-trihydroxytetrahydro-2H-pyran-2-carboxylic acid]
Time to 100% Release [1]: 15 min | Relative Degradation Half-life Observed by LC/MS [2]: None Observed | degradation / stability to spontaneous hydrolysis [2]: no signs of degradation

CCN(COCCc1ccccc1)C(=O)OCc1ccc(O[C@@H]2O[C@H](C(=O)O)[C@@H](O)[C@H](O)[C@H]2O)c(NC(C)=O)c1 [Compound 8.25, (2S,3S,4S,5R,6S)-6-(2-acetamido-4-(((ethyl(phenethoxymethyl)carbamoyl)oxy)methyl)phenoxy)-3,4,5-trihydroxytetrahydro-2H-pyran-2-carboxylic acid]
Time to 100% Release [1]: 15 min | Relative Degradation Half-life Observed by LC/MS [2]: 170 h | stability to spontaneous hydrolysis when R is dimethylaminoethyl instead of ethyl [2]: same excellent stability | degradation / stability to spontaneous hydrolysis [2]: suitable stability

CCN(COC(C)(C)Cc1ccccc1)C(=O)OCc1ccc(O[C@@H]2O[C@H](C(=O)O)[C@@H](O)[C@H](O)[C@H]2O)c(NC(C)=O)c1 [Compound 8.27, (2S,3S,4S,5R,6S)-6-(2-acetamido-4-(((ethyl(((2-methyl-1-phenylpropan-2-yl)oxy)methyl)carbamoyl)oxy)methyl)phenoxy)-3,4,5-trihydroxytetrahydro-2H-pyran-2-carboxylic acid]
Time to 100% Release [1]: 15 min | Relative Degradation Half-life Observed by LC/MS [2]: 170 h | stability to spontaneous hydrolysis when R is dimethylaminoethyl instead of ethyl [2]: same excellent stability | degradation / stability to spontaneous hydrolysis [2]: suitable stability

CCN(CO[C@H]1C2[C@H]3O[C@H]3[C@H]3C4=C(CC[C@]3(C)[C@@]23O[C@H]3[C@@H]2O[C@]12C(C)C)C(=O)OC4)C(=O)OCc1ccc(O[C@@H]2OC(C(=O)O)[C@@H](O)[C@H](O)C2O)c(NC(=O)CCNC(=O)CCN2C(=O)C=CC2=O)c1 (some centres unmarked) [Compound 4.5]
Relative Degradation Half-life Observed by LC/MS [2]: None Observed | drug-linker degradation [2]: No indication of drug-linker degradation

CC(=O)Nc1cc(COC(=O)N(CCN(C)C)COC(C)(C)Cc2ccccc2)ccc1O[C@@H]1O[C@H](C(=O)O)[C@@H](O)[C@H](O)[C@H]1O [Compound 8.31, (2S,3S,4S,5R,6S)-6-(2-acetamido-4-((((2-(dimethylamino)ethyl)(((2-methyl-1-phenylpropan-2-yl)oxy)methyl)carbamoyl)oxy)methyl)phenoxy)-3,4,5-trihydroxytetrahydro-2H-pyran-2-carboxylic acid]
Time to 100% Release [1]: 15 min | Relative Degradation Half-life Observed by LC/MS [2]: None Observed

CO[C@H]1C[C@@H]2CC[C@@H](C)[C@@](O)(O2)C(=O)C(=O)N2CCCC[C@H]2C(=O)O[C@H]([C@@H](C)C[C@H]2CC[C@@H](OCCOCNC(=O)OCc3ccc(NC(=O)[C@H](CCCNC(N)=O)NC(=O)[C@@H](NC(=O)CCN4C(=O)C=CC4=O)C(C)C)cc3)[C@H](OC)C2)CC(=O)[C@H](C)/C=C(\C)[C@@H](O)[C@@H](OC)C(=O)[C@H](C)C[C@H](C)/C=C/C=C/C=C/1C [Compound 5.6]
Relative Degradation Half-life Observed by LC/MS [2]: 170 h | comparative hydrolytic stability [2]: even better hydrolytic stability | drug-linker degradation [2]: No indication of drug-linker degradation

CCN(CSCCc1ccccc1)C(=O)OCc1ccc(O[C@@H]2O[C@H](C(=O)O)[C@@H](O)[C@H](O)[C@H]2O)c(NC(C)=O)c1 [Compound 8.29, (2S,3S,4S,5R,6S)-6-(2-acetamido-4-(((ethyl((phenethylthio)methyl)carbamoyl)oxy)methyl)phenoxy)-3,4,5-trihydroxytetrahydro-2H-pyran-2-carboxylic acid]
Time to 100% Release [1]: 40 min | Relative Degradation Half-life Observed by LC/MS [2]: None Observed | degradation / stability to spontaneous hydrolysis [2]: no sign of degradation

C=CC[C@@H]1/C=C(\C)C[C@H](C)C[C@H](OC)[C@H]2O[C@@](O)(C(=O)C(=O)N3CCCC[C@H]3C(=O)O[C@H](/C(C)=C/C3CC[C@@H](OCNC(=O)OCc4ccc(NC(=O)[C@H](CCCNC(N)=O)NC(=O)[C@@H](NC(=O)CCN5C(=O)C=CC5=O)C(C)C)cc4)[C@H](OC)C3)[C@H](C)[C@@H](O)CC1=O)[C@H](C)C[C@@H]2OC (some centres unmarked) [Compound 6.4]
Relative Degradation Half-life Observed by LC/MS [2]: None Observed | comparative hydrolytic stability [2]: acceptable stability | drug-linker degradation [2]: No indication of drug-linker degradation | half-life ([2]; phosphate buffered saline, 0.1 M PBS buffer, pH 7.4 at 37° C.): 10 h

CC(=O)Nc1cc(COC(=O)N(CCN(C)C)COCCc2ccccc2)ccc1O[C@@H]1O[C@H](C(=O)O)[C@@H](O)[C@H](O)[C@H]1O [Compound 8.30, (2S,3S,4S,5R,6S)-6-(2-acetamido-4-((((2-(dimethylamino)ethyl)(phenethoxymethyl)carbamoyl)oxy)methyl)phenoxy)-3,4,5-trihydroxytetrahydro-2H-pyran-2-carboxylic acid]
Time to 100% Release [1]: 15 min | Relative Degradation Half-life Observed by LC/MS [2]: None Observed

B1: h1F6-1.3: h1F6 antibody (targets CD70+ cells) conjugated to auristatin E Drug-Linker compound 1.3 with MAC unit (conjugate, chains of the INN, looked up)
VH: QVQLVQSGAEVKKPGASVKVSCKASGYTFTNYGMNWVRQAPGQGLKWMGWINTYTGEPTYADAFKGRVTMTRDTSISTAYMELSRLRSDDTAVYYCARDYGDYGMDYWGQGTTVTVSS
VL: DIVMTQSPDSLAVSLGERATINCRASKSVSTSGYSFMHWYQQKPGQPPKLLIYLASNLESGVPDRFSGSGSGTDFTLTISSLQAEDVAVYYCQHSREVPWTFGQGTKVEIK
modifications: auristatin E drug-linker 1.3 with MAC unit
notes: h1F6 antibody (targets CD70+ cells) conjugated to auristatin E Drug-Linker compound 1.3 with MAC unit
IC50 (Caki-1): 0.019 µg/mL | IC50 (Karpas 299): >1 µg/mL | IC50 (786-0): >1000** ng/mL | IC50 (L540cy): >1000* ng/mL
